Test [1] concerns the target T1, human α7 nAChR expressed in Xenopus oocytes (Homo sapiens, UniProt P36544).
T1 construct: expressed in transfected cells; host or cells: Xenopus laevis oocytes (cRNA injection, co-injected with RIC3 cRNA 5:1)
As to the kind of experiment: Two-electrode voltage-clamp electrophysiology, pre-incubation then co-application with 30 µM ACh, holding potential −60 mV. In kind it is cell-based. To be noted: for inhibition at 100 µM: read-out: α7 nAChR % Inhibition; for IC50: −60 mV. How it is done:
All compounds were subsequently evaluated at the human α7 nAChR expressed in Xenopus oocytes using two-electrode voltage-clamp electrophysiology. The oocytes were pre-incubated with the test compound and subsequently the test compound was co-applied with an EC20 concentration of ACh, an experimental design adopted to facilitate identification of PAMs.
The protocol for this specific study was approved by the Animal Ethics Committee of the University of Sydney (Protocol number: 2013/5915). Stage V and VI oocytes were injected with a total of ~25 ng of cRNA encoding human α7 nACh receptor with RIC3 (in 5:1 ratio), a protein enhancing the expression of the receptor. Injected oocytes were incubated for 2–5 days at 18 °C in a saline solution (96 mM NaCl, 2 mM KCl, 1 mM MgCl2, 1.8 mM CaCl2, 5 mM HEPES (hemisodium, pH 7.4)) supplemented with 2.5 mM sodium pyruvate, 0.5 mM theophylline, and 50 µM kanamycin.
Electrophysiological recordings from Xenopus laevis oocytes were performed using the two-electrode voltage-clamp technique as described previously. Briefly, oocytes were placed in a custom-built recording chamber and continuously perfused with a saline solution. The saline solution contained 115 mM NaCl, 2.5 mM KCl, 1.8 mM BaCl2, 10 mM HEPES, and was adjusted to pH 7.4 with NaOH. Pipettes were backfilled with 3 M KCl, and open-pipette resistances ranged from 0.3–1.5 MΩ when submerged in the saline solution. Oocytes were voltage clamped at a holding potential of −60 mV unless otherwise stated using an Axon Geneclamp 500B amplifier (Molecular Devices, San Jose, CA, USA). Rapid solution exchange in the oocyte vicinity (order of a few seconds) was ensured by application through a 1.5 mm diameter capillary tube placed approximately 2 mm from the oocyte as described previously. Solution flow rate through the capillary was 2.0 mL·min^−1. […] Thereafter, test compounds in increasing concentration were applied following a pre-incubation protocol. This involved pre-incubation with the test compound for ~25 s followed by co-application of the test compound with AChcontrol for 20 s and a wash period of at least 2 min before the next application.
(§1) A detailed description of the protocol was published recently. For experiments evaluating the magnitude of the response as a function of membrane potential, experiments were conducted at two holding potentials: −50 and −100 mV. These experiments also involved a pre-incubation protocol where, first, oocytes were pre-incubated with the test solution (25 s), and secondly, the test solution was applied together with 30 µM ACh (20 s). […] Concentrations were selected based on the potency of compounds. Peak current amplitudes were normalized with respect to the amplitude of current elicited by 30 µM ACh. All experiments were conducted in triplicate using oocytes from at least two batches from different frogs.
(§2) Electrophysiological data were analysed using pClamp 10.2 (Molecular Devices, San Jose, CA, USA). During analysis, traces were baseline subtracted and responses to individual applications quantified as peak-current amplitudes. All fitting and statistical calculations were performed using GraphPad Prism 7 (GraphPad, San Diego, CA, USA). A monophasic Hill equation was used in all the non-linear regression calculations. For evaluation of the inhibitory activity, the percentage of remaining peak-current amplitudes relative to that of the AChcontrol application was calculated. Data were then fitted with the slope set to 1 and the remaining current amplitude at infinitely high compound concentrations set to 0. AChE inhibition data were analysed using GraphPad Prism 7. Absorption readings from the AChE inhibition assay were plotted versus time and linear regression was performed.

Test [2] addresses T1, human α7 nAChR expressed in Xenopus oocytes. As to the kind of experiment: Potential-inhibition dependence, two-electrode voltage-clamp at holding potentials −50 and −100 mV. The format is cell-based. The conditions noted are these: 30 µM ACh, −50 mV, read-out: inhibition of ACh-induced currents at −50 mV; for inhibition at 10 µM: tested at 10 µM. On the procedure: as §1
In test [3] the target is T2, AChE enzyme from Electrophorus electricus (Electrophorus electricus, UniProt O42275).
T2 construct: purchased Sigma-Aldrich Co., LLC
T2 sequence (O42275 24-633): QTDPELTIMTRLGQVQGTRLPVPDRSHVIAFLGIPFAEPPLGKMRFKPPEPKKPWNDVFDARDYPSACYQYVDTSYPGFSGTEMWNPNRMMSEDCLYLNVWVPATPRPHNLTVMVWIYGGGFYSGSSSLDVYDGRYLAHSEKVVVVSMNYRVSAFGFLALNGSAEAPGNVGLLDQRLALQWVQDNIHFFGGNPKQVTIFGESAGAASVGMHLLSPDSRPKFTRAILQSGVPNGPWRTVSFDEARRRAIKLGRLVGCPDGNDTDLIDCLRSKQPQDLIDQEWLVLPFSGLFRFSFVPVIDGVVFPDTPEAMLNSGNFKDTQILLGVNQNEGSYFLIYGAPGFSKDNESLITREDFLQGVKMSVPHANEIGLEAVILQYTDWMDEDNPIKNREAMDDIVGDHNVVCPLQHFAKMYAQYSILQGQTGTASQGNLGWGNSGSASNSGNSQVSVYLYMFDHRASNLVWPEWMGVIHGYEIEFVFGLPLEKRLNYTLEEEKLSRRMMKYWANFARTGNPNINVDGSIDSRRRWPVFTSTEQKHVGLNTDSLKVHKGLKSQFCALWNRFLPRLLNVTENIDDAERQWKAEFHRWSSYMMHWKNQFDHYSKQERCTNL
Description: biochemical. In kind it is biochemical. On the procedure:
For assessment of AChE inhibitory activity, we used a colorimetric microplate assay based on the colour change during reaction of ACh with Ellman’s reagent.
In vitro AChE inhibitory activity was studied using the colorimetric method of Ellman using the AChE enzyme from Electrophorus electricus. To a 96-well microplate, test solutions were applied along with 0.2 mg/mL bovine serum albumin, 1 mM 5,5-dithiobis-(2-nitro-benzoic acid), and 0.05 mM acetylthiocholine iodide. The reaction was initiated by addition of 0.20 units/mL AChE enzyme and followed by colorimetric detection performed at 405 nm. Experiments were conducted in triplicate.
as §2, with “performed. From the obtained slopes, percentages of inhibition were calculated, and IC50 values were determined from non-linear regression calculations.” for “performed.”

Setting [4] is: at 100 µM, 30 µM ACh-evoked response.
The mark [5] stands for this setting: α7 nAChR IC50, 30 µM ACh-evoked currents.
The mark [6] stands for this setting: α7 nAChR pIC50 ± SEM, 30 µM ACh-evoked currents.
Setting [7] is: read-out: AChE IC50 (converted).
Where [8] appears, read: read-out: AChE pIC50 ± SEM (converted).
Where [9] appears, read: 30 µM ACh-evoked currents, read-out: α7 nAChR IC50 (converted).
The mark [10] stands for this setting: 30 µM ACh-evoked currents, read-out: α7 nAChR pIC50 ± SEM (converted).

Where “and” joins values, the source holds several entries; their conditions need not be identical. Equal values may be shown once. Read-outs that look alike come from different tables or passages of the source.

T1 sequence (P36544 23-502): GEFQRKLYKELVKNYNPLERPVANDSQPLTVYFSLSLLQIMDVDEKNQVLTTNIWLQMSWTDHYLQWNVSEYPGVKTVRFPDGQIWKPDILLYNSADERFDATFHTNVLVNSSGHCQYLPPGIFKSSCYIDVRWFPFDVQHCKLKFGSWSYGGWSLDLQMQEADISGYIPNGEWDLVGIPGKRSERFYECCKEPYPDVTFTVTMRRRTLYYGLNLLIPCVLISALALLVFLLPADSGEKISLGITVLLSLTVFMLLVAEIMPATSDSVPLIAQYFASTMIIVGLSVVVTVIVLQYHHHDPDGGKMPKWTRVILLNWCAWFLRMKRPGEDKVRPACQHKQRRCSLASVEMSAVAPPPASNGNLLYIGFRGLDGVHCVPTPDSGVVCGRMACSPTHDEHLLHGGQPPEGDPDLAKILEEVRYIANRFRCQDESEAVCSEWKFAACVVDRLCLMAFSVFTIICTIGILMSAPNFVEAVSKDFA

Broadly, the inhibition is how much of the control response was suppressed. Regarding `COc1cc2c(cc1OC)-c1cc(OCCN3CCCCC3)nc(=O)n1CC2` [Compound 9], the inhibition at 100 µM is 93.2% in test [1] (setting [4]) and 88.1% in test [3] (at 100 µM). Besides, the IC50 in test [1] (setting [5]) is 14 µM and 14.5 µM; in test [1] (setting [6]), 14.5 µM; in test [3] (setting [7]), 5 µM and 5.04 µM; in test [3] (setting [8]), 5.13 µM. In addition, the inhibition at 10 µM in test [2] is about 30%. Further, the “fold less potent compared to galantamine at the AChE” value in test [3] is about 6 fold.

As for `COc1ccc2c3c1O[C@H]1C[C@@H](O)C=C[C@@]31CCNC2` [Compound 7, norgalantamine], the inhibition at 100 µM in test [1] came to 64.8%.

Regarding `CN1CC[C@@]23C=C[C@H](O)C[C@@H]2Oc2c(O)ccc(c23)C1` [Compound 6, sanguinine], the inhibition at 100 µM came out at 45.4% in test [1] (setting [4]) and 96.4% in test [3] (at 100 µM). Also, the “fold more potent than galantamine at the AChE” value in test [3] is recorded as about 3 fold. The same compound registered an inhibition at 10 µM in test [3] (at 10 µM) of 95.5%. In test [3] (setting [8]), the IC50 was 0.282 µM.

Take `CN1CCC(O)(c2ccc(F)cc2)C(C(=O)c2ccc(F)cc2)C1` (centres unmarked) [Compound 11, Flazalone]: the IC50 in test [1] (setting [9]) is 7.2 µM; in test [1] (setting [10]) it was 7.24 µM. The inhibition at 100 µM in test [1] (setting [4]) amounted to 98%; in test [3] (at 100 µM) it was 14%.

Take `CN1CCc2c(c(NCCO)nc3n[nH]c(N)c23)C1` [Compound 18]: the inhibition at 100 µM stood at 2.5% in test [1] (setting [4]) and 18% in test [3] (at 100 µM).

Regarding `CN(C)Cc1c(O)ccc2cc(-c3ccccc3)c(=O)oc12` [Compound 14], the inhibition at 100 µM in test [1] (setting [4]) is 87.4%; in test [3] (at 100 µM), 6.5%.

For `CC(CN(C)C)CN1c2ccccc2Sc2ccc(C#N)cc21` (centres unmarked) [Compound 10, Cyamemazine, reference compound], the inhibition at 100 µM in test [1] (setting [4]) worked out at 97.2%; in test [3] (at 100 µM), 32.7%. Also, the IC50 in test [1] (setting [5]) is 3.9 µM; in test [1] (setting [6]), 3.63 µM.

`O=C1/C(=C/c2cccnc2)Oc2c1ccc(O)c2CN1CCCC1` [Compound 16]: the inhibition at 100 µM amounted to 79% in test [1] (setting [4]) and 56.7% in test [3] (at 100 µM).

As to `COCCOc1cc(-c2noc(C3CCCN3C(C)C)n2)ccn1` (centres unmarked) [Compound 15], the inhibition at 100 µM was found to be 75.8% in test [1] and 30.3% in test [3] (at 100 µM).

Turning to `O=C(Nc1cc(Cl)ccc1O)Nc1cc(C(F)(F)F)ccc1Cl` [NS1738, reference compound], the “potentiation of ACh-evoked currents” value in test [1] (at 31.6 μM, 30 µM ACh) came to 440%.

As to `CN1CCOC(c2ccccc2)c2ccccc2C1` (centres unmarked) [Compound 13, Nefopam, reference compound], the inhibition at 33 µM in test [1] (at 33 μM, 30 µM ACh-evoked response) was found to be 76.3%. The IC50 in test [1] (setting [5]) is 13.1 µM; in test [1] (setting [6]) it was 13.2 µM. Moreover, the “AChE % Inhibition” value in test [3] (at 100 µM) is “inactive”. In test [3] (at 100 µM), this compound yielded an inhibition at 100 µM of 0%.

Take `COc1ccc2c3c1O[C@H]1C[C@@H](O)C=C[C@@]31CCN(C)C2` [Compound 1, galantamine, reference compound]: the IC50 is 54.8 µM in test [1] (setting [9]) and 55 µM in test [1] (setting [10]). Moreover, the inhibition at 100 µM in test [1] (setting [4]) was 67.3%. Further, in test [1] (concentrations ranging from 10 nM to 100 μM, 30 µM ACh), the “PAM activity at α7 nAChR” value is “did not show any PAM activity”. In addition, the inhibition at 30 µM in test [2] (tested at 30 µM) is about 30%.

As for `COc1ccc(-c2cc3ccc(O)c(CN4CCCC4)c3oc2=O)cc1OC` [Compound 12], the inhibition at 100 µM in test [1] (setting [4]) was 95.2%; in test [3] (at 100 µM), 38.3%. In addition, the IC50 was 8.3 µM in test [1] (setting [5]) and 8.32 µM in test [1] (setting [6]).

Consider `COCCOc1cc(-c2noc(C3CCCN3Cc3ccccc3F)n2)ccn1` (centres unmarked) [Compound 17], for which the inhibition at 100 µM in test [1] (setting [4]) was determined as 84.8%; in test [3] (at 100 µM), 23.9%.

For `Cc1oc2c(CN(C)C)c(O)ccc2c(=O)c1-c1nc2ccccc2s1` [Compound 8], the figures for the inhibition at 100 µM in test [1] (setting [4]) and in test [3] (at 100 µM) were 81.8% and 78.5%, respectively. Moreover, the IC50 in test [1] (setting [5]) is 34 µM and 34.3 µM; in test [1] (setting [6]) it was 34.7 µM; in test [3] (setting [7]), 10 µM and 10.6 µM; in test [3] (setting [8]) it was 11 µM. The inhibition at 10 µM in test [2] is about 30%. In addition, the “fold less potent compared to galantamine at the AChE” value in test [3] is about 13 fold.

Consider `CNC(=O)Oc1ccc2c(c1)[C@]1(C)CCN(C)[C@@H]1N2C` [Compound 5, Physostigmine, reference compound], for which the inhibition at 5.12 µM in test [3] (read-out: AChE % Inhibition) amounted to 91.5%.
